Measured values taken from PubChem BioAssay AID2060884 (Molecular Pharmacology Branch, DTP, NCI, 2025).

Test system: NCI-H929 complex spheroids, viability % test/control
Test: Anticancer human tumor NCI-H929 cell line growth inhibition [RAS];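 note: compound exposure lasted seven days before viability was read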;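 for viability, T/C: 100% = DMSO vehicle control viability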
Settings: for viability, T/C: stronger effect = lower value
Outline: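 Multi-cell-type spheroids: tumor cells plus HUVEC endothelial cells and mesenchymal stem cells. RAS-pathway inhibitors were combined with targeted agents, each dosed in half-log steps down from clinical Cmax, or from 10 microM when Cmax was unknown.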

## Cc1nc(N2CCC3(CC2)COC(C)C3N)c(CO)nc1Sc1ccnc(N)c1Cl (stereo not drawn)
Compound 0.0316 µM
  viability, T/C: 110% [middle of 4 runs]
Compound 0.1 µM
  viability, T/C: 99% [middle of 4 runs]
Compound 0.316 µM
  viability, T/C: 107% [middle of 4 runs]
Compound 1 µM
  viability, T/C: 100% [middle of 4 runs]
Compound 3.16 µM
  viability, T/C: 105% [middle of 4 runs]
Compound 10 µM
  viability, T/C: 103% [middle of 4 runs]
Curve of compound
  IC50: > 10000 nM

## O=C(c1ccc(F)c(F)c1Nc1ccc(I)cc1F)N1CC(O)([C@@H]2CCCCN2)C1 + C=CC(=O)N1CCN(c2nc(OCC3CCCN3C)nc3c(F)c(-c4nc(N)cc(C)c4C(F)(F)F)c(Cl)cc23)C(C)C1
Curve of first compound, second compound 0.00316 µM
  IC50: > 1000 nM
Curve of first compound, second compound 0.01 µM
  IC50: > 1000 nM
Curve of first compound, second compound 0.0316 µM
  IC50: > 1000 nM
Curve of first compound, second compound 0.1 µM
  IC50: > 1000 nM
Curve of first compound, second compound 0.316 µM
  IC50: > 1000 nM
Curve of first compound, second compound 1 µM
  IC50: > 1000 nM
Second compound 0.00316 µM, first compound 0.00316 µM
  viability, T/C: 101%
Second compound 0.00316 µM, first compound 0.01 µM
  viability, T/C: 92.1%
Second compound 0.00316 µM, first compound 0.0316 µM
  viability, T/C: 85.7%
Second compound 0.00316 µM, first compound 0.1 µM
  viability, T/C: 88.7%
Second compound 0.00316 µM, first compound 0.316 µM
  viability, T/C: 112%
Second compound 0.00316 µM, first compound 1 µM
  viability, T/C: 55.4%
Second compound 0.01 µM, first compound 0.00316 µM
  viability, T/C: 102%
Second compound 0.01 µM, first compound 0.01 µM
  viability, T/C: 91.2%
Second compound 0.01 µM, first compound 0.0316 µM
  viability, T/C: 83.5%
Second compound 0.01 µM, first compound 0.1 µM
  viability, T/C: 94.2%
Second compound 0.01 µM, first compound 0.316 µM
  viability, T/C: 112%
Second compound 0.01 µM, first compound 1 µM
  viability, T/C: 58.3%
Second compound 0.0316 µM, first compound 0.00316 µM
  viability, T/C: 96.9%
Second compound 0.0316 µM, first compound 0.01 µM
  viability, T/C: 96.8%
Second compound 0.0316 µM, first compound 0.0316 µM
  viability, T/C: 88.6%
Second compound 0.0316 µM, first compound 0.1 µM
  viability, T/C: 95.2%
Second compound 0.0316 µM, first compound 0.316 µM
  viability, T/C: 112%
Second compound 0.0316 µM, first compound 1 µM
  viability, T/C: 57.4%
Second compound 0.1 µM, first compound 0.00316 µM
  viability, T/C: 99.2%
Second compound 0.1 µM, first compound 0.01 µM
  viability, T/C: 93.4%
Second compound 0.1 µM, first compound 0.0316 µM
  viability, T/C: 89.1%
Second compound 0.1 µM, first compound 0.1 µM
  viability, T/C: 93.3%
Second compound 0.1 µM, first compound 0.316 µM
  viability, T/C: 113%
Second compound 0.1 µM, first compound 1 µM
  viability, T/C: 56.7%
Second compound 0.316 µM, first compound 0.00316 µM
  viability, T/C: 97.8%
Second compound 0.316 µM, first compound 0.01 µM
  viability, T/C: 101%
Second compound 0.316 µM, first compound 0.0316 µM
  viability, T/C: 84.3%
Second compound 0.316 µM, first compound 0.1 µM
  viability, T/C: 92.7%
Second compound 0.316 µM, first compound 0.316 µM
  viability, T/C: 117%
Second compound 0.316 µM, first compound 1 µM
  viability, T/C: 54.4%
Second compound 1 µM, first compound 0.00316 µM
  viability, T/C: 106%
Second compound 1 µM, first compound 0.01 µM
  viability, T/C: 97.5%
Second compound 1 µM, first compound 0.0316 µM
  viability, T/C: 91.3%
Second compound 1 µM, first compound 0.1 µM
  viability, T/C: 104%
Second compound 1 µM, first compound 0.316 µM
  viability, T/C: 116%
Second compound 1 µM, first compound 1 µM
  viability, T/C: 54%

## Nc1ccn(C2OC(CO)C(O)C2(F)F)c(=O)n1 (stereo not drawn) + CCn1c(-c2cccnc2C(C)OC)c2c3cc(ccc31)N1CCOC(CC(NC(=O)C(C(C)C)N(C)C(=O)C3(F)CCN(C(=O)C#CC(C)(C)N(C)C)CC3)C(=O)N3CCCC(N3)C(=O)OCC(C)(C)C2)C1
Curve of first compound, second compound 0.000949 µM
  IC50: 6.16 nM
Curve of first compound, second compound 0.003 µM
  IC50: 6.22 nM
Curve of first compound, second compound 0.00949 µM
  IC50: 5.72 nM
Curve of first compound, second compound 0.03 µM
  IC50: 5.97 nM
Curve of first compound, second compound 0.0949 µM
  IC50: 5.49 nM
Curve of first compound, second compound 0.3 µM
  IC50: 5.79 nM
Second compound 0.000949 µM, first compound 0.00316 µM
  viability, T/C: 105%
Second compound 0.000949 µM, first compound 0.01 µM
  viability, T/C: 10.1%
Second compound 0.000949 µM, first compound 0.0316 µM
  viability, T/C: 0.99%
Second compound 0.000949 µM, first compound 0.1 µM
  viability, T/C: 0.68%
Second compound 0.000949 µM, first compound 0.316 µM
  viability, T/C: 0.75%
Second compound 0.000949 µM, first compound 1 µM
  viability, T/C: 0.74%
Second compound 0.003 µM, first compound 0.00316 µM
  viability, T/C: 103%
Second compound 0.003 µM, first compound 0.01 µM
  viability, T/C: 12.8%
Second compound 0.003 µM, first compound 0.0316 µM
  viability, T/C: 0.86%
Second compound 0.003 µM, first compound 0.1 µM
  viability, T/C: 0.83%
Second compound 0.003 µM, first compound 0.316 µM
  viability, T/C: 0.91%
Second compound 0.003 µM, first compound 1 µM
  viability, T/C: 0.96%
Second compound 0.00949 µM, first compound 0.00316 µM
  viability, T/C: 96.3%
Second compound 0.00949 µM, first compound 0.01 µM
  viability, T/C: 6.3%
Second compound 0.00949 µM, first compound 0.0316 µM
  viability, T/C: 1.25%
Second compound 0.00949 µM, first compound 0.1 µM
  viability, T/C: 0.77%
Second compound 0.00949 µM, first compound 0.316 µM
  viability, T/C: 0.75%
Second compound 0.00949 µM, first compound 1 µM
  viability, T/C: 0.72%
Second compound 0.03 µM, first compound 0.00316 µM
  viability, T/C: 99.8%
Second compound 0.03 µM, first compound 0.01 µM
  viability, T/C: 9.61%
Second compound 0.03 µM, first compound 0.0316 µM
  viability, T/C: 1.21%
Second compound 0.03 µM, first compound 0.1 µM
  viability, T/C: 0.91%
Second compound 0.03 µM, first compound 0.316 µM
  viability, T/C: 0.88%
Second compound 0.03 µM, first compound 1 µM
  viability, T/C: 0.89%
Second compound 0.0949 µM, first compound 0.00316 µM
  viability, T/C: 92.5%
Second compound 0.0949 µM, first compound 0.01 µM
  viability, T/C: 3.76%
Second compound 0.0949 µM, first compound 0.0316 µM
  viability, T/C: 1.08%
Second compound 0.0949 µM, first compound 0.1 µM
  viability, T/C: 0.91%
Second compound 0.0949 µM, first compound 0.316 µM
  viability, T/C: 0.76%
Second compound 0.0949 µM, first compound 1 µM
  viability, T/C: 0.75%
Second compound 0.3 µM, first compound 0.00316 µM
  viability, T/C: 103%
Second compound 0.3 µM, first compound 0.01 µM
  viability, T/C: 2.46%
Second compound 0.3 µM, first compound 0.0316 µM
  viability, T/C: 1.01%
Second compound 0.3 µM, first compound 0.1 µM
  viability, T/C: 0.96%
Second compound 0.3 µM, first compound 0.316 µM
  viability, T/C: 0.99%
Second compound 0.3 µM, first compound 1 µM
  viability, T/C: 0.8%

## C=CC(=O)N1CCN(c2nc(OCC3CCCN3C)nc3c(F)c(-c4nc(N)cc(C)c4C(F)(F)F)c(Cl)cc23)C(C)C1 (stereo not drawn)
Compound 0.00316 µM
  viability, T/C: 102% [middle of 12 runs]
Compound 0.01 µM, compound 0.0316 µM
  viability, T/C: 103%
Compound 0.01 µM, compound 0.1 µM
  viability, T/C: 105%
Compound 0.01 µM, compound 0.316 µM
  viability, T/C: 101%
Compound 0.01 µM, compound 1 µM
  viability, T/C: 106%
Compound 0.01 µM
  viability, T/C: 101% [middle of 13 runs]
Compound 0.0316 µM, compound 0.00316 µM
  viability, T/C: 94.3%
Compound 0.0316 µM, compound 0.01 µM
  viability, T/C: 101%
Compound 0.0316 µM, compound 0.1 µM
  viability, T/C: 101%
Compound 0.0316 µM, compound 0.316 µM
  viability, T/C: 108%
Compound 0.0316 µM, compound 1 µM
  viability, T/C: 109%
Compound 0.0316 µM
  viability, T/C: 103% [middle of 13 runs]
Compound 0.1 µM, compound 0.00316 µM
  viability, T/C: 98.2%
Compound 0.1 µM, compound 0.01 µM
  viability, T/C: 104%
Compound 0.1 µM, compound 0.0316 µM
  viability, T/C: 99.5%
Compound 0.1 µM, compound 0.316 µM
  viability, T/C: 109%
Compound 0.1 µM, compound 1 µM
  viability, T/C: 111%
Compound 0.1 µM
  viability, T/C: 100% [middle of 12 runs]
Compound 0.316 µM, compound 0.00316 µM
  viability, T/C: 102%
Compound 0.316 µM, compound 0.01 µM
  viability, T/C: 105%
Compound 0.316 µM, compound 0.0316 µM
  viability, T/C: 106%
Compound 0.316 µM, compound 0.1 µM
  viability, T/C: 102%
Compound 0.316 µM, compound 1 µM
  viability, T/C: 113%
Compound 0.316 µM
  viability, T/C: 100% [middle of 13 runs]
Compound 1 µM, compound 0.00316 µM
  viability, T/C: 107%
Compound 1 µM, compound 0.01 µM
  viability, T/C: 104%
Compound 1 µM, compound 0.0316 µM
  viability, T/C: 105%
Compound 1 µM, compound 0.1 µM
  viability, T/C: 109%
Compound 1 µM, compound 0.316 µM
  viability, T/C: 110%
Compound 1 µM
  viability, T/C: 104% [middle of 13 runs]
Compound alone, run of 09/09/2024
  IC50: > 1000 nM
Curve of compound
  IC50: > 1000 nM
